Data on 1 molecule can be found in ChEMBL document CHEMBL1150186, “Chemical studies on Mexican plants used in traditional medicine, XV. Sesquiterpene evoninoate alkaloids from Hippocratea excelsa” (J Nat Prod, 1990).

Data set [1] in a line: Cytotoxicity against mouse 9PS cells. It is filed as functional. As to conditions: read-out: ED50 (the source's name).
The nature of data set [2]: Toxicity against brine shrimp. The data set is classed as organism-based. As to conditions: artemia, in vivo.
The subject of a further data set is A549. The experiment in a line: Cytotoxicity against human A549 cells. It is filed as functional. As to conditions: read-out: ED50 (the source's name).
The test system of the next data set is MCF7. Description: Cytotoxicity against human MCF7 cells. The data set is classed as functional. As to conditions: read-out: ED50 (the source's name).
Another data set relates to HT-29. Description: Cytotoxicity against human HT-29 cells. The data set is classed as functional. To be noted: read-out: ED50 (the source's name).

Values after ≈ are worked out from the molar mass of the structure shown.

With `CC(=O)OC[C@]12[C@H](OC(C)=O)[C@H](OC(C)=O)C3C(OC(C)=O)[C@@]14O[C@@]3(C)COC(=O)c1cccnc1[C@@H](C)[C@H](C)C(=O)OC([C@H](OC(=O)c1ccc(=O)n(C)c1)[C@@H]2OC(=O)c1ccccc1)[C@]4(C)O` (stereo not given in full) [HIPPOCRATEINE], the EC50 in data set [1] was 0.185 µg/mL (≈ 0.193 µM); with A549 it was more than 10 µg/mL; in the data set with MCF7, more than 10 µg/mL; in the data set with HT-29 it was more than 10 µg/mL. Besides, in data set [2], the LC50 is 212 µg/mL (≈ 221 µM).
